# Source: ChEMBL document CHEMBL1133288, “Synthesis and antiviral evaluation of nucleic acid-based (NAB) libraries” (Bioorg Med Chem Lett, 2000)
# Test system: Vero
# Experiment: Compound was evaluated for inhibition of HSV-1 induced plaques in vero cells (African green monkey kidney cells)
# Assay type: functional, cell-based
# Settings: Chlorocebus sabaeus
smiles,measurement,value
Nc1nc2c(ncn2COCCO)c(=O)[nH]1 [ACYCLOVIR],EC50,6 µM
